Test system: rabbits subjected to anterior cruciate ligament transection (ACLT)
Test: Rabbit ACLT study, histomorphometry of bone, cartilage and osteophytes
Format: in vivo
Protocol: The femora and tibias were decalcified, embedded in paraffin, sectioned at 5-7 µm at two different levels separated by approximately 2 mm, and stained with safranin O and toluidine blue.
Both tibial plateaus and femoral condyles (i.e. four joint compartments) were also subjected to histomorphometric analysis of cartilage, subchondral bone, cancellous bone, and osteophytes. The measurements were made using OsteoMeasureXP version 3.3.0.2 as follows:
Uncalcified cartilage area was measured by tracing the articular surface (cartilage perimeter) and bone or calcified cartilage/uncalcified cartilage interface (cartilage boundary).
Cartilage width was measured by point to point measurement at intersections between a sampling grid with approximately 0.5 mm spacing and the cartilage boundary. The intercepts measured were orthogonal to the cartilage boundary and ended at the cartilage perimeter. At intersections where the cartilage width was zero due to erosion, a value of zero was recorded.
Subchondral bone width was measured by point to point measurement at intersections between a sampling grid with approximately 0.5 mm spacing and the cartilage boundary. The intercepts measured were orthogonal to the cartilage boundary and ended at the first marrow cavity encountered that had at least one dimension approximately equivalent to nearby trabecular thickness.
Osteophyte area was measured for abaxial osteophytes. On the femur, osteophytes associated with the condyles but not with the trochlear grooves were measured.
Bone area (including osteoid) and perimeter were measured in a 3.8 X 1.5 mm ROI centered approximately 1 mm below the bone/cartilage interface. This ROI was intended to be equivalent to the subchondral cancellous bone VOI measured by microCT. Bone volume (BV/TV), trabecular thickness (Tb.Th), trabecular number (Tb.N) and trabecular separation (Tb.Sp) were derived from these measurements using standard formulae.
Slides were evaluated in animal ID order, i.e. in random order with respect to treatment, so that the measurer was effectively blinded to treatment assignment.
Analysis was performed on all four condyles at two levels (Level 1 and 2) for each condyle:
Group 1) sham + vehicle; Group 2) ACLT + vehicle; Group 3) ACLT + MIV-711, 30 µmol/kg (low dose) and Group 4) ACLT + MIV-711, 100 µmol/kg (high dose).

[1] = Level 1 LFC, Group 3, ACLT + MIV-711 30 µmol/kg
[2] = Level 1 LFC, Group 4, ACLT + MIV-711 100 µmol/kg
[3] = Level 1 LTP, Group 3, ACLT + MIV-711 30 µmol/kg
[4] = Level 1 LTP, Group 4, ACLT + MIV-711 100 µmol/kg
[5] = Level 1 MFC, Group 3, ACLT + MIV-711 30 µmol/kg
[6] = Level 1 MFC, Group 4, ACLT + MIV-711 100 µmol/kg

C#C[C@@H]1CN(C(=O)[C@H](CC(C)C)NC(=O)c2ccc(-c3nc(N4CCN(C)CC4)sc3F)cc2)[C@@H]2C(=O)CO[C@H]12 [MIV-711]
effect on osteophyte parameters at the microscopic level (ACLT rabbits, 30 and 100 µmol/kg): did not affect | Cart.Bd, Mean (Level 1, MFC, Group 3): 8.37 mm | Cart.Bd, Median (Level 1, MFC, Group 3): 8.42 mm | Cart.Pm, Mean (Level 1, MFC, Group 3): 9.31 mm | Cart.Pm, Median (Level 1, MFC, Group 3): 9.55 mm | Cart.Wi, Mean (Level 1, MFC, Group 3): 264.49 µm | Cart.Wi, Median (Level 1, MFC, Group 3): 233.46 µm | SCB.Wi, Mean (Level 1, MFC, Group 3): 796.52 µm | SCB.Wi, Median (Level 1, MFC, Group 3): 695.73 µm | Cart.Bd, Mean (Level 1, MFC, Group 4): 8.94 mm | Cart.Bd, Median (Level 1, MFC, Group 4): 8.89 mm | Cart.Pm, Mean (Level 1, MFC, Group 4): 10.24 mm | Cart.Pm, Median (Level 1, MFC, Group 4): 10.20 mm | Cart.Wi, Mean (Level 1, MFC, Group 4): 323.96 µm | Cart.Wi, Median (Level 1, MFC, Group 4): 341.58 µm | SCB.Wi, Mean (Level 1, MFC, Group 4): 655.48 µm | SCB.Wi, Median (Level 1, MFC, Group 4): 627.36 µm | BV/TV, Mean (Level 1, MTP, Group 3): 37.43% | BV/TV, Median (Level 1, MTP, Group 3): 39.13% | Cart.Ar, Mean (Level 1, MTP, Group 3): 3.43 mm2 | Cart.Ar, Median (Level 1, MTP, Group 3): 3.15 mm2 | Cart.Bd, Mean (Level 1, MTP, Group 3): 5.74 mm | Cart.Bd, Median (Level 1, MTP, Group 3): 5.82 mm | Cart.Pm, Mean (Level 1, MTP, Group 3): 5.96 mm | Cart.Pm, Median (Level 1, MTP, Group 3): 5.73 mm | Cart.Wi, Mean (Level 1, MTP, Group 3): 627.75 µm | Cart.Wi, Median (Level 1, MTP, Group 3): 633.18 µm | Ophte.Ar, Mean (Level 1, MTP, Group 3): 7.76 mm2 | Ophte.Ar, Median (Level 1, MTP, Group 3): 7.61 mm2 | SCB.Wi, Mean (Level 1, MTP, Group 3): 718.50 µm | SCB.Wi, Median (Level 1, MTP, Group 3): 715.91 µm | Tb.N, Mean (Level 1, MTP, Group 3): 2.07 1/mm | Tb.N, Median (Level 1, MTP, Group 3): 1.97 1/mm | Tb.Sp, Mean (Level 1, MTP, Group 3): 306.15 µm | Tb.Sp, Median (Level 1, MTP, Group 3): 294.58 µm | Tb.Th, Mean (Level 1, MTP, Group 3): 182.44 µm | Tb.Th, Median (Level 1, MTP, Group 3): 174.84 µm | BV/TV, Mean (Level 1, MTP, Group 4): 35.92% | BV/TV, Median (Level 1, MTP, Group 4): 35.01% | Cart.Ar, Mean (Level 1, MTP, Group 4): 2.98 mm2 | Cart.Ar, Median (Level 1, MTP, Group 4): 3.00 mm2 | Cart.Bd, Mean (Level 1, MTP, Group 4): 5.22 mm | Cart.Bd, Median (Level 1, MTP, Group 4): 5.08 mm | Cart.Pm, Mean (Level 1, MTP, Group 4): 6.31 mm | Cart.Pm, Median (Level 1, MTP, Group 4): 5.70 mm | Cart.Wi, Mean (Level 1, MTP, Group 4): 618.52 µm | Cart.Wi, Median (Level 1, MTP, Group 4): 551.09 µm | Ophte.Ar, Mean (Level 1, MTP, Group 4): 9.09 mm2 | Ophte.Ar, Median (Level 1, MTP, Group 4): 7.85 mm2 | SCB.Wi, Mean (Level 1, MTP, Group 4): 839.92 µm | SCB.Wi, Median (Level 1, MTP, Group 4): 790.92 µm | Tb.N, Mean (Level 1, MTP, Group 4): 1.91 1/mm | Tb.N, Median (Level 1, MTP, Group 4): 1.80 1/mm | Tb.Sp, Mean (Level 1, MTP, Group 4): 346.56 µm | Tb.Sp, Median (Level 1, MTP, Group 4): 370.02 µm | Tb.Th, Mean (Level 1, MTP, Group 4): 190.56 µm | Tb.Th, Median (Level 1, MTP, Group 4): 188.86 µm | BV/TV, Mean [1]: 37.49% | BV/TV, Median [1]: 36.26% | Cart.Ar, Mean [1]: 2.52 mm2 | Cart.Ar, Median [1]: 2.55 mm2 | Cart.Bd, Mean [1]: 9.42 mm | Cart.Bd, Median [1]: 9.52 mm | Cart.Pm, Mean [1]: 10.23 mm | Cart.Pm, Median [1]: 10.40 mm | Cart.Wi, Mean [1]: 263.55 µm | Cart.Wi, Median [1]: 269.31 µm | Ophte.Ar, Mean [1]: 2.48 mm2 | Ophte.Ar, Median [1]: 1.89 mm2 | SCB.Wi, Mean [1]: 527.88 µm | SCB.Wi, Median [1]: 537.74 µm | Tb.N, Mean [1]: 2.87 1/mm | Tb.N, Median [1]: 2.78 1/mm | Tb.Sp, Mean [1]: 221.27 µm | Tb.Sp, Median [1]: 221.54 µm | Tb.Th, Mean [1]: 131.58 µm | Tb.Th, Median [1]: 132.19 µm | BV/TV, Mean [2]: 40.76% | BV/TV, Median [2]: 39.99% | Cart.Ar, Mean [2]: 3.28 mm2 | Cart.Ar, Median [2]: 3.33 mm2 | Cart.Bd, Mean [2]: 11.05 mm | Cart.Bd, Median [2]: 11.43 mm | Cart.Pm, Mean [2]: 11.98 mm | Cart.Pm, Median [2]: 12.38 mm | Cart.Wi, Mean [2]: 290.77 µm | Cart.Wi, Median [2]: 272.05 µm | Ophte.Ar, Mean [2]: 3.18 mm2 | Ophte.Ar, Median [2]: 1.06 mm2 | SCB.Wi, Mean [2]: 478.03 µm | SCB.Wi, Median [2]: 466.56 µm | Tb.N, Mean [2]: 2.76 1/mm | Tb.N, Median [2]: 2.79 1/mm | Tb.Sp, Mean [2]: 215.44 µm | Tb.Sp, Median [2]: 222.15 µm | Tb.Th, Mean [2]: 147.91 µm | Tb.Th, Median [2]: 146.15 µm | BV/TV, Mean [3]: 43.89% | BV/TV, Median [3]: 43.62% | Cart.Ar, Mean [3]: 2.03 mm2 | Cart.Ar, Median [3]: 2.02 mm2 | Cart.Bd, Mean [3]: 6.10 mm | Cart.Bd, Median [3]: 6.13 mm | Cart.Pm, Mean [3]: 6.15 mm | Cart.Pm, Median [3]: 6.13 mm | Cart.Wi, Mean [3]: 340.85 µm | Cart.Wi, Median [3]: 342.70 µm | Ophte.Ar, Mean [3]: 0.43 mm2 | Ophte.Ar, Median [3]: 0.58 mm2 | SCB.Wi, Mean [3]: 532.09 µm | SCB.Wi, Median [3]: 572.30 µm | Tb.N, Mean [3]: 2.79 1/mm | Tb.N, Median [3]: 2.77 1/mm | Tb.Sp, Mean [3]: 202.57 µm | Tb.Sp, Median [3]: 211.29 µm | Tb.Th, Mean [3]: 159.11 µm | Tb.Th, Median [3]: 141.92 µm | BV/TV, Mean [4]: 43.87% | BV/TV, Median [4]: 45.02% | Cart.Ar, Mean [4]: 2.49 mm2 | Cart.Ar, Median [4]: 2.63 mm2 | Cart.Bd, Mean [4]: 6.56 mm | Cart.Bd, Median [4]: 6.67 mm | Cart.Pm, Mean [4]: 6.48 mm | Cart.Pm, Median [4]: 6.62 mm | Cart.Wi, Mean [4]: 391.09 µm | Cart.Wi, Median [4]: 393.49 µm | Ophte.Ar, Mean [4]: 0.62 mm2 | Ophte.Ar, Median [4]: 0.37 mm2 | SCB.Wi, Mean [4]: 557.78 µm | SCB.Wi, Median [4]: 592.81 µm | Tb.N, Mean [4]: 2.47 1/mm | Tb.N, Median [4]: 2.39 1/mm | Tb.Sp, Mean [4]: 232.42 µm | Tb.Sp, Median [4]: 223.55 µm | Tb.Th, Mean [4]: 179.81 µm | Tb.Th, Median [4]: 179.09 µm | BV/TV, Mean [5]: 52.87% | BV/TV, Median [5]: 51.00% | Cart.Ar, Mean [5]: 2.30 mm2 | Cart.Ar, Median [5]: 2.03 mm2 | Ophte.Ar, Mean [5]: 2.75 mm2 | Ophte.Ar, Median [5]: 2.12 mm2 | Tb.N, Mean [5]: 2.87 1/mm | Tb.N, Median [5]: 2.98 1/mm | Tb.Sp, Mean [5]: 164.11 µm | Tb.Sp, Median [5]: 161.32 µm | Tb.Th, Mean [5]: 190.82 µm | Tb.Th, Median [5]: 169.90 µm | BV/TV, Mean [6]: 46.41% | BV/TV, Median [6]: 48.01% | Cart.Ar, Mean [6]: 2.99 mm2 | Cart.Ar, Median [6]: 3.31 mm2 | Ophte.Ar, Mean [6]: 5.87 mm2 | Ophte.Ar, Median [6]: 1.02 mm2 | Tb.N, Mean [6]: 2.87 1/mm | Tb.N, Median [6]: 2.92 1/mm | Tb.Sp, Mean [6]: 189.94 µm | Tb.Sp, Median [6]: 173.69 µm | Tb.Th, Mean [6]: 161.31 µm

Source: paper PMC5845353, “The selective cathepsin K inhibitor MIV-711 attenuates joint pathology in experimental animal models of osteoarthritis” (Journal of Translational Medicine, 2018)
